How the values were obtained:
OaVMAT2WT = biological target: T1, OaVMAT2WT (Ovis aries, UniProt A0A6P7DBQ8); assay: microscale thermophoresis (RED-Tris-NTA labelled protein); assay type: binding
T1 construct: gene JEQ12_011695; full-length wild type; N-terminal His10-BRIL-TEV and C-terminal TEV-BRIL-His10 tags, released by TEV cleavage (called His-tagged in MST); Pichia pastoris GS115; DDM; monomer on crosslinking

HsVMAT2 [1] = biological target: T2, HsVMAT2 (Homo sapiens, UniProt Q05940); assay: as above; assay type: binding
T2 construct: gene SLC18A2; full-length; N-terminal His10-BRIL-TEV and C-terminal TEV-BRIL-His10 tags, released by TEV cleavage (called His-tagged in MST); Pichia pastoris GS115; DDM
Source text: microscale thermophoresis (RED-Tris-NTA labelled protein) on HsVMAT2 | MST fitting curves of SER binding to HsVMAT2 WT and variants as indicated

HsVMAT2 [2] = biological target: T3, HsVMAT2 (Homo sapiens, UniProt Q05940, Y433A); assay: as above; assay type: binding
T3 construct: gene SLC18A2; full-length; N-terminal His10-BRIL-TEV and C-terminal TEV-BRIL-His10 tags, released by TEV cleavage (called His-tagged in MST); Pichia pastoris GS115; DDM
Source text: (§1) microscale thermophoresis (RED-Tris-NTA labelled protein) on HsVMAT2 | L228A, V232A, E312A, Y341A, D399A and Y433A, reduced their binding affinities for serotonin

HsVMAT2 [3] = biological target: T4, HsVMAT2 (Homo sapiens, UniProt Q05940, L228A); assay: as above; assay type: binding
T4 construct: gene SLC18A2; full-length; N-terminal His10-BRIL-TEV and C-terminal TEV-BRIL-His10 tags, released by TEV cleavage (called His-tagged in MST); Pichia pastoris GS115; DDM
Source text: as §1

HsVMAT2 [4] = biological target: T5, HsVMAT2 (Homo sapiens, UniProt Q05940, V232A); assay: as above; assay type: binding
T5 construct: gene SLC18A2; full-length; N-terminal His10-BRIL-TEV and C-terminal TEV-BRIL-His10 tags, released by TEV cleavage (called His-tagged in MST); Pichia pastoris GS115; DDM
Source text: as §1

HsVMAT2 [5] = biological target: T6, HsVMAT2 (Homo sapiens, UniProt Q05940, Y341A); assay: as above; assay type: binding
T6 construct: gene SLC18A2; full-length; N-terminal His10-BRIL-TEV and C-terminal TEV-BRIL-His10 tags, released by TEV cleavage (called His-tagged in MST); Pichia pastoris GS115; DDM
Source text: as §1

HsVMAT2 [6] = biological target: T7, HsVMAT2 (Homo sapiens, UniProt Q05940, D399A); assay: as above; assay type: binding
T7 construct: gene SLC18A2; full-length; N-terminal His10-BRIL-TEV and C-terminal TEV-BRIL-His10 tags, released by TEV cleavage (called His-tagged in MST); Pichia pastoris GS115; DDM

XlVMAT2WT = biological target: T8, XlVMAT2WT (Xenopus laevis, UniProt A0A1L8FIB7); assay: as above; assay type: binding
T8 construct: gene LOC108696020; full-length wild type, 514 residues, monomer; N-terminal His10-BRIL-TEV and C-terminal TEV-BRIL-His10 tags, released by TEV cleavage (called His-tagged in MST); Pichia pastoris GS115; DDM

[7] = biological target: OaVMAT2_(TM8/9-BRIL): sheep (Ovis aries) VMAT2 with the TM8/9 loop replaced by BRIL (Ovis aries | not stated); assay: cross-linking; ~10 ug purified protein in 20 mM HEPES-Na pH 7.5, 150 mM NaCl, 5 mM beta-mercaptoethanol, 0.4 mM DDM; glutaraldehyde 4, 2 and 1 mM, 10 min, room temperature; SDS-PAGE
[8] = biological target: OaVMAT2_(TM8/9-BRIL): sheep (Ovis aries) VMAT2 with the TM8/9 loop replaced by BRIL (Ovis aries | not stated); assay: cryo-EM structure; single-particle analysis of OaVMAT2_(TM8/9-BRIL) in 20 mM Tris-HCl pH 7.5, 150 mM NaCl, 5 mM beta-mercaptoethanol, 0.4 mM DDM; C2 symmetry imposed; 3.2 A

T1 sequence (A0A6P7DBQ8 1-517): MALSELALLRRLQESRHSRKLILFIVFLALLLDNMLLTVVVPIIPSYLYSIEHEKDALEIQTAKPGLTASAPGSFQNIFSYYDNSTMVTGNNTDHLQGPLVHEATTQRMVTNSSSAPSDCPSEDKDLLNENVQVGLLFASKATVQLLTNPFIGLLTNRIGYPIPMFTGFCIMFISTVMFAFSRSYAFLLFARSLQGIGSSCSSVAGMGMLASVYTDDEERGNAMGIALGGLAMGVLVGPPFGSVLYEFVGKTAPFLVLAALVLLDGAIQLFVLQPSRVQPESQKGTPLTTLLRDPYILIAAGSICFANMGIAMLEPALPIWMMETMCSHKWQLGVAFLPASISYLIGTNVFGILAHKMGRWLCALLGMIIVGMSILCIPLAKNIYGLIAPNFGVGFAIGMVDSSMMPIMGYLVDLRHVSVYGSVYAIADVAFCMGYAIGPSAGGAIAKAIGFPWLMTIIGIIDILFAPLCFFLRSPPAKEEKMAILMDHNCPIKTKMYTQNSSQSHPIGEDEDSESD
T8 sequence (A0A1L8FIB7 1-514): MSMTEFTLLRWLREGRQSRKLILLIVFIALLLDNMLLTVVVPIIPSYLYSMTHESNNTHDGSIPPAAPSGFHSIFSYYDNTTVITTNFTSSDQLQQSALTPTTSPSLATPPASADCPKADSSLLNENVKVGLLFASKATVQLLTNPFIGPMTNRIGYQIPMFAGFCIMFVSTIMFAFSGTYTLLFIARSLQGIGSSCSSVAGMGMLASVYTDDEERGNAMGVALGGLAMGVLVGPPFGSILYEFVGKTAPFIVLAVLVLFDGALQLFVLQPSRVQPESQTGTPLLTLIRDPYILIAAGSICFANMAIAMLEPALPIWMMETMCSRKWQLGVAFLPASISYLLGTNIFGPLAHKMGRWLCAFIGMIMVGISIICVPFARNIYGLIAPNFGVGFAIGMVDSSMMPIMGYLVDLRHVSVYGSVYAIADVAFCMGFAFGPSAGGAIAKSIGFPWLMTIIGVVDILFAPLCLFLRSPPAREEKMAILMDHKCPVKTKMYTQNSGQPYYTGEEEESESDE
T2 sequence (Q05940 whole entry): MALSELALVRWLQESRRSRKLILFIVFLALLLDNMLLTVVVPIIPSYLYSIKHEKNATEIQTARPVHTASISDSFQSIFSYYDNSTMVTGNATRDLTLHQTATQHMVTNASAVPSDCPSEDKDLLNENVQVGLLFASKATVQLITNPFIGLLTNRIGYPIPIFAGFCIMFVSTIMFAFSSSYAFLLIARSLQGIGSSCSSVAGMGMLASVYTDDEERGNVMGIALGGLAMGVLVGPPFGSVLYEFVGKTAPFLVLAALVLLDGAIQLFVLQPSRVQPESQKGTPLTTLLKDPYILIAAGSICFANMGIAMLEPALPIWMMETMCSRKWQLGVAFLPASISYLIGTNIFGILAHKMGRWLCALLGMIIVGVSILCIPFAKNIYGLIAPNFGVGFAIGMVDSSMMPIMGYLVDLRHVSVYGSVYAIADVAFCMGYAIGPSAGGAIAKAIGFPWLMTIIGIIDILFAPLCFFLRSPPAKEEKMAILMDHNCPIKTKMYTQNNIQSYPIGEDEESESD
T6 sequence (Q05940 whole entry Y341A): as the sequence (Q05940 whole entry) above, with Y341A counted along it
T7 sequence (Q05940 whole entry D399A): as the sequence (Q05940 whole entry) above, with D399A counted along it
T4 sequence (Q05940 whole entry L228A): as the sequence (Q05940 whole entry) above, with L228A counted along it
T3 sequence (Q05940 whole entry Y433A): as the sequence (Q05940 whole entry) above, with Y433A counted along it
T5 sequence (Q05940 whole entry V232A): as the sequence (Q05940 whole entry) above, with V232A counted along it

`NCCc1c[nH]c2ccc(O)cc12` [serotonin] was tested. Which Kd (OaVMAT2WT) did it give?
The Kd was 210 ± 60 nM.

And the Kd (HsVMAT2 [1])?
Its Kd is 450 ± 50 nM.

What about the Kd (HsVMAT2 [2]) of the same molecule?
The Kd was 3910 ± 1300 nM.

And the Kd (HsVMAT2 [3])?
Its Kd is 3150 ± 550 nM.

And the Kd (HsVMAT2 [4])?
The Kd was 3850 ± 1610 nM.

And the Kd (HsVMAT2 [5])?
Its Kd is 810 ± 220 nM.

What about the Kd (HsVMAT2 [6]) of the same molecule?
The Kd was 22100 ± 3600 nM.

And the Kd (XlVMAT2WT)?
Its Kd is 430 ± 220 nM.

“OaVMAT2_(TM8/9-BRIL): sheep (Ovis aries) VMAT2 with the TM8/9 loop replaced by BRIL” was tested. Which stoichiometry N [7] did it give?
The stoichiometry N was 2.

What about the stoichiometry N [8] of the same molecule?
Its stoichiometry N is 2.

Which Kd (OaVMAT2WT) does the source give for `COC(=O)[C@H]1[C@H]2C[C@@H]3c4[nH]c5cc(OC)ccc5c4CCN3C[C@H]2C[C@@H](OC(=O)c2cc(OC)c(OC)c(OC)c2)[C@@H]1OC` [reserpine] here?
Its Kd is 16 ± 5.7 nM.

And the Kd (XlVMAT2WT)?
The Kd was 17 ± 8.8 nM.

From article PMC11297040, “Engineering of a mammalian VMAT2 for cryo-EM analysis results in non-canonical protein folding” (Nature Communications, 2024)
